The values that follow come from patent publication US20230416168A1 (EUROCHEM ANTWERPEN, priority 2020, published 2023).

Assay [1] concerns Nitrosomonas europaea. The assay can be described thus: Nitrification inhibition assay with Nitrosomonas europaea (nitrite level after 24 h). The class given is cell-based. The settings on record: for IC50 / activity at 100 µM / activity at 50 µM: Nitrosomonas europaea; for activity at 100 µM / activity at 50 µM: 24 h, read-out: Nitrification (%) at tested concentration (0 = maximum activity); for activity at 50 µM: tested concentration 50 μM. As for the experimental part: (§1) The compounds of formula (I) and (II) and (III)/(IV) were tested for their nitrification inhibition effect in two screens, using assays with the nitrifying bacteria N. europaea and N. multiformis. In practice, ammonium and candidate nitrification inhibitors (at 100 μM) were added to a dense bacterial culture in multiwell culture plates and after 24 h of incubation, the nitrite level was measured. To normalize for differences between batches of cultures and multiwell culture plates, for each well a relative nitrification was calculated that was normalized towards both the negative and positive controls (see “Material and Methods” below for full details).
(§2) Nitrite (NO2−) was measured using the Griess reagent (Product number: G4410, Griess reagent (modified), Sigma-Aldrich). Equal volumes of the sample or a diluted sample and the Griess reagent were mixed a transparent flat bottom multi-well plate and incubated in the dark at room temperature for 10 minutes. Absorbance values at 540 nm were measured spectrophotometrically (EnVision, Perkin Elmer®) and used to calculate the [NO2−] by use of a standard curve.
To prepare a high-throughput nitrification inhibition assay using N. europaea, late-log phase cultures were subcultivated two days before the assay. Just before the assay, the cultures were 5 times overconcentrated with fresh growth medium after centrifugation (4000 rpm, 15 min, 5° C.) in 50 mL centrifuge tubes (Cat. No. 430829, CentriStar™ Conical Centrifuge Tubes, Corning®). Per batch, all the cultures were pooled in one sterile Schott bottle and subsequently dispensed into 384-well plates (Cat. No. 781086, CELL-STAR® plate, Greiner Bio-One; 50 μl/well) by use of a dispenser (Multidrop™ Combi Reagent Dispenser, Thermo Scientific™) that was first flushed with growth medium. Specifically for the high-throughput screen for new nitrification inhibitors, 0.5 μl of 99.99% DMSO (negative control—final concentration 1%) was added to the outer two columns on the left side of the plate and 0.5 μl of 10 mM DMP (3,4-dimethylpyrazole, positive control—final concentration 100 μM) was added to the outer two columns on the right side manually. Finally, 0.5 μl of candidate nitrification inhibitors (5 mM stock solutions in 99.99% DMSO—final concentration 50 μM) were added to the central wells using a pin tool on a Tecan robot (Freedom EVO®, Tecan). In between additions, the pins were washed in sequence with 99.5% DMSO, MilliQ water and 100% ethanol and air-dried. All plates were separately wrapped in Parafilm. Stacks of 4 plates were put on top of a 96-well plate filled with 100 μl MilliQ per well, covered with aluminum foil and shaken at 150 rpm at 28° C. 24 h later, NO2− production was assessed. For this, the samples were first 200 times diluted by pipetting 1.5 μl of samples into 300 μl of fresh growth medium in intermediate plates (Cat. No. 353077, Falcon® 96-well Clear Round Bottom Microplate, Corning®), to then mix 15 μl of the diluted samples with 15 μl Griess reagent in the wells of a transparent, flat bottom 384-well plate (Cat. No. X^7001, Low Profile Microplate, Molecular Devices) that was measured spectrophotometrically at 540 nm (EnVision, Perkin Elmer®).
(§3) To assess the efficacy of the compounds (in terms of nitrification inhibition) and to enable comparison between plates and batches of cultures, we calculated the relative nitrification. More in detail, all nitrite results were normalized towards both a negative control, containing no compound, and a positive control, containing the benchmark (100 μM DMP), using Equation 1. This normalization was done per multi-well plate and each plate contained 32 positive and 32 negative controls.
IC50 values, that is the concentration that inhibits 50% of the nitrification, were calculated after fitting a logistic curve to 8-point dose response data, using doses between 2 and 100 μM with 1.75 fold steps. […]

In assay [2] the test system is Nitrosospira multiformis. The assay can be described thus: Nitrification inhibition assay with Nitrosospira multiformis (nitrite level after 24 h). Type of assay: cell-based. The settings on record: for IC50 / activity at 100 µM / activity at 50 µM: Nitrosospira multiformis; for activity at 100 µM / activity at 50 µM: 24 h, read-out: Nitrification at tested concentration (0 = maximum activity); for activity at 50 µM: tested concentration 50 μM. As for the experimental part: as §1, §2
Cultures were first 5 times overconcentrated in fresh 181-medium by centrifugation (4000 rpm, 15 min, 5° C.) in 50 mL centrifuge tubes (Cat. No. 430829, CentriStar™ Conical Centrifuge Tubes, Corning®). Per batch, all the cultures were pooled in one sterile Schott bottle and subsequently dispensed in 384-well plates (Cat. No. 781086, CELLSTAR® plate, Greiner BioOne; 50 μl/well) by use of a dispenser (Multidrop™ Combi Reagent Dispenser, Thermo Scientific™) that was first flushed with 181-medium. 0.5 μl of 99.99% DMSO (negative control—final concentration […] was added to the outer two columns on the left side of the plate and 0.5 μl of 10 mM DMP (3,4-dimethylpyrazole, positive control—final concentration 100 μM) was added to the outer two columns on the right side manually. Finally, 0.5 μl of candidate nitrification inhibitors (5 mM stock solutions in 99.99% DMSO—final concentration 50 μM) were added to the central wells using a pin tool on a Tecan robot (Freedom EVO®, Tecan). In between additions, the pins were washed in sequence with 99.5% DMSO, MilliQ water and 100% ethanol and air-dried. All plates were separately wrapped in Parafilm. Stacks of 4 plates were put on top of a 96-well plate filled with 100 μl MilliQ per well, covered with aluminum foil and shaken (±150 rpm) at 30° C. 24 h later, NO2− production was assessed. For this, the samples were first 100 times diluted by pipetting 3 μl of samples into 300 μl fresh growth medium in intermediate plates (Cat. No. 353077, Falcon® 96-well Clear Round Bottom Microplate, Corning®) to then mix 15 μl of the diluted samples with 15 μl Griess reagent in the wells of a transparent, flat bottom 384-well plate (Cat. No. X^7001, Low Profile Microplate, Molecular Devices) that was measured spectrophotometrically at 540 nm (EnVision, Perkin Elmer®).
as §3
IC50 values, that is the concentration that inhibits 50% of the nitrification, were calculated after fitting a logistic curve to 8-point dose response data, using doses between 2 and 100 μM with 1.75 fold steps. If a concentration of 2 μM already inhibited nitrification, the IC50 value could not be calculated. In that case, IC50 values represent the dose that gives inhibition closest to 50%.
The compounds of formula (I) and (II) were tested for their nitrification inhibition effect in two screens, using assays with the nitrifying bacteria N. europaea and N. multiformis. […]

[3] abbreviates: 8-point dose response, 2 to 100 μM, read-out: IC50.
Setting [4] is: tested concentration 100 μM, normalized to DMSO (100%) and 100 μM DMP (0%).
[5] abbreviates: normalized to DMSO (100%) and 100 μM DMP (0%).

As usually defined, the IC50 is the midpoint of a concentration-inhibition curve.

Where two headings read alike, the source gives them in different places.

Take `CCN(CN1CCSC1=S)C1CC1` [Example 2]: the IC50 in assay [1] (setting [3]) and in assay [2] (setting [3]) was less than 2 µM in each case. The activity at 100 µM in assay [1] (setting [4]) and in assay [2] (setting [4]) was 0% throughout.

In the case of `CC1CSC(=S)N1` (stereo not shown) [Example 3], the IC50 was less than 3.5 µM in assay [1] (setting [3]) and less than 2 µM in assay [2] (setting [3]). In addition, the activity at 100 µM in assay [1] (setting [4]) and in assay [2] (setting [4]) was 0% throughout.

`CC1CNC(=S)S1` (stereo not shown) [Example 4]: in assay [1], the IC50 is less than 2 µM and the activity at 100 µM came out at 0%. Besides, in assay [2], the 50% inhibitory concentration (IC50) is less than 2 µM and the activity at 100 µM came to 0%.

As for `O=C1NCCS1` [Example 8], the IC50 in assay [1] (setting [3]) and in assay [2] (setting [3]) was less than 100 µM each time. Also, the values for the activity at 100 µM in assay [1] (setting [4]) and in assay [2] (setting [4]) were 47% and 31%, respectively.

With `O=C(CSC1=NCCS1)NCc1cc(Br)cs1` [Example 11], in assay [2] (setting [3]), the IC50 was less than 20 µM. Moreover, in assay [2] (setting [4]), the activity at 100 µM is 0%.

In the case of `COc1cccc(-c2nc(CSC3=NCCS3)cs2)c1OC` [Example 12], the IC50 is less than 100 µM in assay [1] (setting [3]) and less than 20 µM in assay [2] (setting [3]). The results for the activity at 100 µM in assay [1] (setting [4]) and in assay [2] (setting [4]) were 0% and 11%, respectively.

Take `CCn1c(CSC2=NCCS2)nc2cc(F)ccc21` [Example 13]: the figures for the activity at 50 µM in assay [1] (setting [5]) and in assay [2] (setting [5]) were 73% and 0%, respectively.

With `CC1CSC(SCc2cc(=O)n3ccsc3n2)=N1` (stereo not shown) [Example 14], the figures for the IC50 in assay [1] (setting [3]) and in assay [2] (setting [3]) were less than 57 µM and less than 20 µM, respectively. In addition, the activity at 100 µM in assay [1] (setting [4]) and in assay [2] (setting [4]) was 0% in each case.

In the case of `COc1cc(C(=O)CSC2=NCCS2)cc(OC)c1OC` [Example 15], the activity at 50 µM in assay [1] (setting [5]) is 78%; in assay [2] (setting [5]), 13%.

With `Cc1cccc(CSC2=NCCS2)c1` [Example 17], the activity at 50 µM was 100% in assay [1] (setting [5]) and 36% in assay [2] (setting [5]).

On to `COc1ccccc1Nc1nc(N)nc(CSC2=NCCS2)n1` [Example 20], for which the activity at 50 µM in assay [1] (setting [5]) is 79%; in assay [2] (setting [5]), 42%.

Consider `Cc1csc(=S)[nH]1` [Example 26, 4-methyl-1,3-thiazole-2-thiol], for which the “Average nitrification [%] in Nitrosomonas europaea” value was determined as 91% in assay [1] (2 μM); 84% in assay [1] (3.5 μM); 80% in assay [1] (6 μM); 83% in assay [1] (11 μM); 78% in assay [1] (19 μM); 71% in assay [1] (33 μM). The “Average nitrification [%] in Nitrosomonas europaea” value in assay [1] (57 μM) is 50%; in assay [1] (100 μM), 0%. Further, the 50% inhibitory concentration (IC50) turned out to be 38 µM in assay [1] (setting [3]) and 2.1 µM in assay [2] (setting [3]). Also, the activity at 100 µM in assay [1] (setting [4]) and in assay [2] (setting [4]) was 0% throughout. The “Average nitrification [%] in Nitrosospira multiformis” value was found to be 51% in assay [2] (2 μM); 27% in assay [2] (3.5 μM); 6% in assay [2] (6 μM); 2% in assay [2] (11 μM); 0% in assay [2] (19 μM); 0% in assay [2] (33 μM). Moreover, the “Average nitrification [%] in Nitrosospira multiformis” value in assay [2] (57 μM) and in assay [2] (100 μM) was 0% throughout.

For `CCSc1nc(CC(=O)O)cs1` [Example 27], the concentration for half-maximal inhibition (IC50) in assay [1] (setting [3]) and in assay [2] (setting [3]) was greater than 100 µM throughout. The figures for the activity at 100 µM in assay [1] (setting [4]) and in assay [2] (setting [4]) were 62% and 77%, respectively.

As for `S=c1[nH]cc(Cc2ccccc2)s1` [Example 28], the IC50 in assay [1] (setting [3]) is greater than 100 µM; in assay [2] (setting [3]), 12 µM. Moreover, the activity at 100 µM in assay [1] (setting [4]) was 65%; in assay [2] (setting [4]), 0%.

With `CSc1nc(N)c(C#N)s1` [Example 29], the IC50 in assay [1] (setting [3]) was 28 µM; in assay [2] (setting [3]), greater than 100 µM. In addition, the activity at 100 µM in assay [1] (setting [4]) came out at 0%; in assay [2] (setting [4]), 61%.

As for `S=c1[nH]c(-c2ccccc2)cs1` [Example 30], the half-inhibitory concentration (IC50) in assay [1] (setting [3]) is 42 µM; in assay [2] (setting [3]), 36 µM. Also, the results for the activity at 100 µM in assay [1] (setting [4]) and in assay [2] (setting [4]) were 21% and 0%, respectively.

Regarding `Oc1csc(=S)[nH]1` [Example 31], the values for the IC50 in assay [1] (setting [3]) and in assay [2] (setting [3]) were 14 µM and 16 µM, respectively. Moreover, the activity at 100 µM in assay [1] (setting [4]) came to 12%; in assay [2] (setting [4]) it was 11%.

Turning to `CSc1nc(Br)cs1` [Example 32], the IC50 in assay [1] (setting [3]) was less than 100 µM; in assay [2] (setting [3]), greater than 100 µM. The activity at 100 µM in assay [1] (setting [4]) turned out to be 46%; in assay [2] (setting [4]), 75%.

Consider `CSc1ncc(Br)s1` [Example 33], for which the half-inhibitory concentration (IC50) in assay [1] (setting [3]) and in assay [2] (setting [3]) was greater than 100 µM each time. The activity at 100 µM in assay [1] (setting [4]) is 68%; in assay [2] (setting [4]) it was 64%.

For the compound `S=c1[nH]c(C2CC2)cs1` [Example 34], the concentration for half-maximal inhibition (IC50) in assay [1] (setting [3]) was 52 µM; in assay [2] (setting [3]), 11 µM. Besides, the activity at 100 µM in assay [1] (setting [4]) and in assay [2] (setting [4]) was 0% throughout.

Consider `Cc1[nH]c(=S)sc1C` [Example 35], for which the figures for the half-inhibitory concentration (IC50) in assay [1] (setting [3]) and in assay [2] (setting [3]) were 43 µM and 3 µM, respectively. The activity at 100 µM in assay [1] (setting [4]) stood at 12%; in assay [2] (setting [4]), 0%.

As for `S=c1[nH]c(C2CCCCC2)cs1` [Example 36], the figures for the IC50 in assay [1] (setting [3]) and in assay [2] (setting [3]) were 16 µM and 49 µM, respectively. For the same compound, the activity at 100 µM in assay [1] (setting [4]) is 0%; in assay [2] (setting [4]), 15%.
